Values quoted from earlier work as cited in patent US20090017139A1, “Iodine therapy dosing for treating medical conditions” (priority 2007, published 2009).

Legend:
school age children = conditions: 11 mg/d, 2.5 years later; cited from earlier work
[1] = 1.5 to more than 10 g/day for weeks at a time; cited from earlier work
[2] = perchlorate 6 mg i.p., 2 hr predosing; cited from earlier work
[3] = male rats, 100 days; cited from earlier work

[I-].[Na+] [sodium iodide]
incidence of goiter (school age children): 0.2%

[I-].[K+] [potassium iodide]
side effects [1]: few side effects are reported

I [iodide, reference compound]
reduction of thyroidal uptake by perchlorate [2]: more than 90%
thyroid size [3]: Significant increases in thyroid size
